Results as given in patent publication US6887896B1, “7-[(7-Alkoxy)-chrom-3-en-6-yl]-heptatrienoic acid and 7-[(3-alkoxy)-5,6-dihydronaphthalen-2-yl]-heptatrienoic acid derivatives having serum glucose reducing activity” (Allergan, Inc., priority 2003, dated 2005).

What was measured:
[1] = target: T1, RARβ (Homo sapiens, UniProt P10826); assay: chimeric receptor transactivation assay, RARβ; format: cell-based; settings: for EC50: chimeric receptor transactivation, read-out: RAR Trans. EC50 β; for Emax: percentage compared to the standard compound, read-out: RAR Trans. efficacy (number in parentheses) β
T1 sequence (P10826 183-417 limits assumed): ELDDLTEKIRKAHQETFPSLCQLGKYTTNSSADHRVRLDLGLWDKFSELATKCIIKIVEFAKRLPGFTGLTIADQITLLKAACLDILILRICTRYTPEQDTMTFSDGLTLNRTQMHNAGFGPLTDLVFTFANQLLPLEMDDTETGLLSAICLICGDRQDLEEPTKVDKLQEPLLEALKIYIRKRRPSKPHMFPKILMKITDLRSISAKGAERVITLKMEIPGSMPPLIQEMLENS
From the text: Specifically, one such assay is a chimeric receptor transactivation assay which tests for agonist-like activity in the R RAPE and RAR7 receptor subtypes, and which is based on work published by Feigner, P. L. and Holm, M (1989) Focus, 112 is described in detail in U.S. Pat. No. 5,455,265. The specification of U.S. Pat. No. 5,455,265 is hereby expressly incorporated by reference. A holoreceptor transactivation assay and a ligand binding assay which measure the antagonist/agonist like activity of the compounds of the invention, or their ability to bind to the several retinoid receptor subtypes, respectively, are described in published PCT Application No. WO WO93/11755 (particularly on pages 30-33 and 37-41) published on Jun. 24, 1993, the specification of which is also incorporated herein by reference. A detailed experimental procedure for holoreceptor transactivations has been described by Heyman et al. Cell 68, 397-406, (1992); Allegretto et al. J. Biol. Chem. 268, 26625-26633, and Mangelsdorf et al. The Retinoids: Biology, Chemistry and Medicine, pp 319-349, Raven Press Ltd., New York, which are expressly incorporated herein by reference. The results obtained in this assay are expressed in EC50 numbers, as they are also in the chimeric receptor transactivation assay. The results of the ligand binding assay are expressed in Ki numbers. (See Cheng et al. Biochemical Pharmacology Vol. 22 pp 3099-3108, expressly incorporated herein by reference.)
Efficacy in a transactivation assay is expressed as a percentage of the maximum potency attained by the compound compared to a standard which, in this case, is the compound named (2E,4E,1′S,2′S)-3-methyl-5-[2′-methyl-2′-(5,5,8,8-tetramethyl-5,6,7,8-tetrahydro-naphthalen-2-yl)-cyclopropyl]-penta-2,4-dienoic acid. This standard compound is described in U.S. Pat. No. 6,114,533.
The specification of this application for patent is organized in several sections in accordance with structural Formulas A through F each of which discloses a group of preferred compounds within the scope of the invention. Tables that disclose the activity of certain exemplary compounds of the invention in the above-described RXR receptor transactivation and binding assays are found in the corresponding sections. […] The transactivation data pertaining to the activation of RXR receptors were obtained in the holoreceptor assay.
Generally speaking, in the tables disclosing the results of transactivation and binding assays the numbers in parentheses indicate efficacy as a percentage compared to the standard compound, (2E,4E,1′S,2′S)-3-methyl-5-[2′-methyl-2′-(5,5,8,8-tetramethyl-5,6,7,8-tetrahydro-naphthalen-2-yl)cyclopropyl]-penta-2,4-dienoic acid and the other numbers indicate the measured EC50 and K; in nanomolar concentration.

[2] = target: T2, RXRα (Homo sapiens, UniProt P19793); assay: holoreceptor transactivation assay, RXRα; format: cell-based; settings: for EC50: holoreceptor transactivation, read-out: RXR Trans. EC50 α; for Emax: percentage compared to the standard compound, read-out: RXR Trans. efficacy (number in parentheses) α
T2 construct: expressed in transfected cells
T2 sequence (P19793 1-462): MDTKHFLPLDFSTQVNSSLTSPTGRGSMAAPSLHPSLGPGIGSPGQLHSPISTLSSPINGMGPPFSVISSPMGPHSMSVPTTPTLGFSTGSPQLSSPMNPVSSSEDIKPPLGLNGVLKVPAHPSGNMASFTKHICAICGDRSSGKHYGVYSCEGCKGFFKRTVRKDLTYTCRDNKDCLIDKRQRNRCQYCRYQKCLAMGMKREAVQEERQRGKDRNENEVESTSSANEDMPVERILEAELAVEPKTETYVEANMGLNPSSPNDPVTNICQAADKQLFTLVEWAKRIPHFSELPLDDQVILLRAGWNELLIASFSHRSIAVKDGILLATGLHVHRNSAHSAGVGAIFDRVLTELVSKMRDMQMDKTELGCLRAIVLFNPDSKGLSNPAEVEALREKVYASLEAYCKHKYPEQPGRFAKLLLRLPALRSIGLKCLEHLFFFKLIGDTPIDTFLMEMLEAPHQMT
How it was run: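 Cells carrying either full-length RXR (holoreceptor) or chimeric RAR receptors were exposed to compound and reporter transactivation recorded. Potency was expressed as EC50 in nanomolar. Efficacy was expressed as percent of the maximal response of a reference cyclopropyl-tetramethyltetrahydronaphthalene penta-2,4-dienoic acid.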

[3] = target: T3, RARα (Homo sapiens, UniProt P10276); assay: ligand binding assay, RARα; settings: for Ki: read-out: RAR Bind. Ki α; for Kd: Table 9 (Formula F), read-out: RAR α Kd
T3 sequence (P10276 1-462): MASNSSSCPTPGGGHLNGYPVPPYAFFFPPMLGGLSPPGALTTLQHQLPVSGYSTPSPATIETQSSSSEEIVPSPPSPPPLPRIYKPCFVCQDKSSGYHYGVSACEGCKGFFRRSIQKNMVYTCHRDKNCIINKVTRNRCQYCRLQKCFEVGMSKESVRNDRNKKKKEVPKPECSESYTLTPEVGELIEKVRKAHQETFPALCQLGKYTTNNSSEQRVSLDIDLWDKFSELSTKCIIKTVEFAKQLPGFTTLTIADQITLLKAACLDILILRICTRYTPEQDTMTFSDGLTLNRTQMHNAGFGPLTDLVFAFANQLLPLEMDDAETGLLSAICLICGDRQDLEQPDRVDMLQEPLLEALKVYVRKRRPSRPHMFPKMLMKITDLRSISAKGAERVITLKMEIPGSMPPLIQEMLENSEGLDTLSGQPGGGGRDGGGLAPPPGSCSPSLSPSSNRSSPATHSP
How it was run: (§1)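 Binding of compounds to several retinoid receptor subtypes was measured. Results are given as Ki values in nanomolar concentration, derived per Cheng et al.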

[4] = target: T4, RARβ (Homo sapiens, UniProt P10826); assay: ligand binding assay, RARβ; settings: for Ki: read-out: RAR Bind. Ki β; for Kd: Table 9 (Formula F), read-out: RAR β Kd
T4 sequence (P10826 1-455): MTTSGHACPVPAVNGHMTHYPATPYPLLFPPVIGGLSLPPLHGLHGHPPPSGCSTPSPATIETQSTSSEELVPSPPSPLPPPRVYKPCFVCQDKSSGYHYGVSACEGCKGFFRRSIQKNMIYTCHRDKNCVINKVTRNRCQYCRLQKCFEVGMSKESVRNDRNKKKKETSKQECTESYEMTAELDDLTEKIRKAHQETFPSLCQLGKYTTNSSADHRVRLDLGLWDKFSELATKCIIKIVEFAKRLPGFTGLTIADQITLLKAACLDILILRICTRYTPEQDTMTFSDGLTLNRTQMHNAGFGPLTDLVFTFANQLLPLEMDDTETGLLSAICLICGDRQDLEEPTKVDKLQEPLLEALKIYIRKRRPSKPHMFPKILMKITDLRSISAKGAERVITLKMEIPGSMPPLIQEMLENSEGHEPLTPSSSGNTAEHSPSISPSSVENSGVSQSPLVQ
How it was run: as §1

SMILES	EC50 [1]	Emax [1]	EC50 [2]	Emax [2]	Ki [3]	Ki [4]	Kd [3]	Kd [4]
CC/C(=C(F)/C=C/C(C)=C/C(=O)O)c1cc2c(cc1OC)OC(C)(C)C=C2C(C)(C)C [Compound 131, 7-(4-tert-Butyl-7-methoxy-2,2-dimethyl-2H-chromen-6-yl)-6-fluoro-3-methyl-nona-2E,4E,6E-trienoic acid]	116 nM	13%	6 nM	37%	837 nM	843 nM		
CCOc1cc2c(cc1\C(CC)=C(F)/C=C/C(C)=C/C(=O)O)C(C)=CC(C)(C)O2 [Compound 132, 7-(7-Ethoxy-2,2,4-trimethyl-2H-chromen-6-yl)-6-fluoro-3-methyl-nona-2E,4E,6E-trienoic acid]	710 nM	8%	759 nM	15%	148 nM	548 nM		
CCOc1cc2c(cc1\C(=C/C=C/C(C)=C/C(=O)O)CC)C(C)=CCC2(C)C [Compound A-16, 7-(3-Ethoxy-5,5,8-trimethyl-5,6-dihydronaphthalen-2-yl)-3-methyl-nona-2E,4E,6Z-trienoic acid]	242 nM	21%	12 nM	39%	578 nM	610 nM		
CCOc1cc2c(cc1\C(C)=C/C=C/C(C)=C/C(=O)O)C(C(C)(C)C)=CCC2(C)C [Compound A-17, 7-(8-tert-Butyl-3-ethyloxy-5,5-dimethyl-5,6-dihydronaphthalen-2-yl)-3-methyl-octa-2E,4E,6Z-trienoic acid]	50 nM	7%	0.6 nM	85%	861 nM	401 nM		
CCOc1cc2c(cc1\C(C)=C(F)/C=C/C(C)=C/C(=O)O)C=CCC2(C)C [Compound A-76, (2E,4E,6E)-7-(3-Ethoxy-5,5-dimethyl-5,6-dihydro-naphthalen-2-yl)-6-fluoro-3-methyl-octa-2,4.6-trienoic acid]	> 10000 nM		50 nM	104%	1600 nM	2600 nM		
CCOc1cc2c(cc1\C(C)=C(F)/C=C/C(C)=C/C(=O)O)C(C(C)(C)C)=CCC2(C)C [Compound A-82, (2E,4E,6E)-6-Fluoro-3-(4,4-dimethyl-6-ethoxy-1-tert-butyl-3,4 dihydronaphthalen-7-yl)-3-methyl-2,4,6-octa-trienoic acid]	170 nM	9%	1 nM	43%	387 nM	400 nM		

Other lines, results leading:

EC50 [1]	Emax [1]	EC50 [2]	Emax [2]	Ki [3]	Ki [4]	Kd [3]	Kd [4]	SMILES
49 nM	13%	0.02 nM	87%	47 nM	381 nM			CC/C(=C(F)/C=C/C(C)=C/C(=O)O)c1cc2c(c(Cl)c1OC)OC(C)(C)C=C2C(C)C [Compound 171, 7-(8-Chloro-4-isopropyl-7-methoxy-2,2-dimethyl-2H-chromen-6-yl)-6-fluoro-3-methyl-nona-2E,4E,6E-trienoic acid]
15 nM	7%	2.6 nM	18%	442 nM	137 nM			CCOc1cc2c(cc1\C(=C/C=C/C(C)=C/C(=O)O)CC)C(C(C)(C)C)=CCC2(C)C [Compound A-18, 7-(8-tert-butyl-3-ethyoxy-5,5-dimethyl-5,6-dihydronaphthalen-2-yl)-3-methyl-nona-2E,4E,6Z-trienoic acid]
43 nM	68%	3 nM	23%	180 nM	477 nM			CCOc1cc2c(cc1\C(CC)=C(F)/C=C/C(C)=C/C(=O)O)C(CC)=CCC2(C)C [Compound A-78, (2E,4E,6E)-7-(3-Ethoxy-8-ethyl-5,5-dimethyl-5,6-dihydro-naphthalen-2-yl)-6-fluoro-3-methyl-nona-2,4,6-trienoic acid]
31 nM	12%	2 nM	13%	394 nM	261 nM			CCOc1cc2c(cc1\C(CC)=C(F)/C=C/C(C)=C/C(=O)O)C(C(C)(C)C)=CCC2(C)C [Compound A-83, (2E,4E,6E)-7-(8-tert-Butyl-3-ethoxy-5,5-dimethyl-5,6-dihydronaphthalen-2-yl)-6-fluoro-3-methyl-nona-2,4,6-trienoic acid]
3.5 nM	8%	0.2 nM	60%			12 nM	56 nM	CCOc1c(\C(CC)=C(F)/C=C/C(C)=C/C(=O)O)cc2c(c1Br)C(C)(C)CC=C2C(C)C [Compound A-170, (2E,4E,6E)-7-(4-Bromo-3-ethoxy-8-isopropyl-5,5-dimethyl-5,6-dihydro-naphthalen-2-yl)-6-fluoro-3-methyl-nona-2,4,6-trienoic acid]
2 nM	12%	0.9 nM	24%			29 nM	37 nM	CCOc1c(\C(=C(F)/C=C/C(C)=C/C(=O)O)C(C)C)cc2c(c1Br)C(C)(C)CC=C2C(C)C [Compound A-171, (2E,4E,6E)-7-(4-Bromo-3-ethoxy-8-isopropyl-5,5-dimethyl-5,6-dihydro-naphthalen-2-yl)-6-fluoro-3.8-dimethyl-nona-2.4,6-trienoic acid]
